Measured values as given in patent US8461083B2, “Herbicidal compounds” (Syngenta Limited, priority 2008, dated 2013).

What was measured:
Type in all cases: in vivo
[1] = tested on: Setaria faberi (SETFA); test: Pre-emergence herbicidal glasshouse test; conditions: pre-emergence (sprayed after one day cultivation), evaluated after 13 days, 100=total damage to plant, 0=no damage to plant; for PRE Application SETFA, damage to plant: 1000 g/ha; for pest or weed control at 1000 g/ha: Setaria faberi, 312 h, read-out: PRE Application SETFA, damage to plant
Summary of the method: (§1)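 Damage rated 13 days after application on a 0 (none) to 100 (total) scale. Compounds went on at 1000 g/ha in acetone/water 50:50 plus 0.5% Tween 20, one day post-sowing for pre-emergence or eight days for post-emergence. Plants grown at 24/16° C, 14 h light, 65% humidity.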

[2] = tested on: Solanum nigrum (SOLNI); test: Pre-emergence herbicidal glasshouse test; conditions: pre-emergence (sprayed after one day cultivation), evaluated after 13 days, 100=total damage to plant, 0=no damage to plant; for PRE Application SOLNI, damage to plant: 1000 g/ha; for pest or weed control at 1000 g/ha: Solanum nigrum, 312 h, read-out: PRE Application SOLNI, damage to plant
Summary of the method: as §1

[3] = tested on: Echinochloa crus-galli (ECHCG); test: Pre-emergence herbicidal glasshouse test; conditions: pre-emergence (sprayed after one day cultivation), evaluated after 13 days, 100=total damage to plant, 0=no damage to plant; for PRE Application ECHCG, damage to plant: 1000 g/ha; for pest or weed control at 1000 g/ha: Echinochloa crus-galli, 312 h, read-out: PRE Application ECHCG, damage to plant
Summary of the method: (§2)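 Glasshouse pots at 24/16 °C day/night, 14 h photoperiod and 65% humidity were treated once at 1000 g/ha, using 0.5% Tween 20 in acetone/water 50:50, before (1 d) or after (8 d) emergence. Phytotoxicity was scored 0–100 at 13 days.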

[4] = tested on: Alopecurus myosuroides (ALOMY); test: Pre-emergence herbicidal glasshouse test; conditions: pre-emergence (sprayed after one day cultivation), evaluated after 13 days, 100=total damage to plant, 0=no damage to plant; for PRE Application ALOMY, damage to plant: 1000 g/ha; for pest or weed control at 1000 g/ha: Alopecurus myosuroides, 312 h, read-out: PRE Application ALOMY, damage to plant
Summary of the method: as §1

[5] = tested on: Amaranthus retoflexus (AMARE); test: Pre-emergence herbicidal glasshouse test; conditions: pre-emergence (sprayed after one day cultivation), evaluated after 13 days, 100=total damage to plant, 0=no damage to plant; for PRE Application AMARE, damage to plant: 1000 g/ha; for pest or weed control at 1000 g/ha: Amaranthus retroflexus, 312 h, read-out: PRE Application AMARE, damage to plant
Summary of the method: as §1

[6] = tested on: Setaria faberi (SETFA); test: Post-emergence herbicidal glasshouse test; conditions: post-emergence (sprayed after 8 days cultivation), evaluated after 13 days, 100=total damage to plant, 0=no damage to plant; for POST Application SETFA, damage to plant: 1000 g/ha; for pest or weed control at 1000 g/ha: Setaria faberi, 312 h, read-out: POST Application SETFA, damage to plant
Summary of the method: as §1

[7] = tested on: Solanum nigrum (SOLNI); test: Post-emergence herbicidal glasshouse test; conditions: post-emergence (sprayed after 8 days cultivation), evaluated after 13 days, 100=total damage to plant, 0=no damage to plant; for POST Application SOLNI, damage to plant: 1000 g/ha; for pest or weed control at 1000 g/ha: Solanum nigrum, 312 h, read-out: POST Application SOLNI, damage to plant
Summary of the method: as §1

[8] = tested on: Echinochloa crus-galli (ECHCG); test: Post-emergence herbicidal glasshouse test; conditions: post-emergence (sprayed after 8 days cultivation), evaluated after 13 days, 100=total damage to plant, 0=no damage to plant; for POST Application ECHCG, damage to plant: 1000 g/ha; for pest or weed control at 1000 g/ha: Echinochloa crus-galli, 312 h, read-out: POST Application ECHCG, damage to plant
Summary of the method: as §2

[9] = tested on: Alopecurus myosuroides (ALOMY); test: Post-emergence herbicidal glasshouse test; conditions: post-emergence (sprayed after 8 days cultivation), evaluated after 13 days, 100=total damage to plant, 0=no damage to plant; for POST Application ALOMY, damage to plant: 1000 g/ha; for pest or weed control at 1000 g/ha: Alopecurus myosuroides, 312 h, read-out: POST Application ALOMY, damage to plant
Summary of the method: as §1

[10] = tested on: Amaranthus retoflexus (AMARE); test: Post-emergence herbicidal glasshouse test; conditions: post-emergence (sprayed after 8 days cultivation), evaluated after 13 days, 100=total damage to plant, 0=no damage to plant; for POST Application AMARE, damage to plant: 1000 g/ha; for pest or weed control at 1000 g/ha: Amaranthus retroflexus, 312 h, read-out: POST Application AMARE, damage to plant
Summary of the method: as §1

## C=CCn1c(=O)ccc2cc(C(=O)C3C(=O)CCCC3=O)c(C(F)(F)F)nc21 [Compound 2.14, 2-{8-allyl-7-oxo-7,8-dihydro-2-trifluoromethyl-[1,8]-naphthyridine-3-carbony}-cyclohexane-1,3-dione]
[1]
  PRE Application SETFA, damage to plant: 80
[2]
  PRE Application SOLNI, damage to plant: 90
[3]
  PRE Application ECHCG, damage to plant: 100
[4]
  PRE Application ALOMY, damage to plant: 40
[5]
  PRE Application AMARE, damage to plant: 60
[6]
  POST Application SETFA, damage to plant: 90
[7]
  POST Application SOLNI, damage to plant: 90
[8]
  POST Application ECHCG, damage to plant: 90
[9]
  POST Application ALOMY, damage to plant: 80
[10]
  POST Application AMARE, damage to plant: 70

## O=C1CCCC(=O)C1C(=O)c1cc2cc(F)c(NC3CC3)nc2nc1C(F)(F)F [Compound 1.92, 2-[7-(cyclopropylamino)-6-fluoro-2-trifluoromethyl-[1,8]-naphthyridine-3-carbony]-cyclohexane-1,3-dione]
[1]
  PRE Application SETFA, damage to plant: 100
[2]
  PRE Application SOLNI, damage to plant: 100
[3]
  PRE Application ECHCG, damage to plant: 100
[4]
  PRE Application ALOMY, damage to plant: 60
[5]
  PRE Application AMARE, damage to plant: 100
[6]
  POST Application SETFA, damage to plant: 80
[7]
  POST Application SOLNI, damage to plant: 80
[8]
  POST Application ECHCG, damage to plant: 80
[9]
  POST Application ALOMY, damage to plant: 80
[10]
  POST Application AMARE, damage to plant: 100

## O=C1CCCC(=O)C1C(=O)c1cc2ccc(=O)n(C3CCCC3)c2nc1C(F)(F)F [Compound 2.8, 2-{8-cyclopentyl-7-oxo-7,8-dihydro-2-trifluoromethyl-[1,8]-naphthyridine-3-carbony}-cyclohexane-1,3-dione]
[1]
  pest or weed control at 1000 g/ha: 70%
[2]
  pest or weed control at 1000 g/ha: 90%
[3]
  pest or weed control at 1000 g/ha: 70%
[4]
  pest or weed control at 1000 g/ha: 30%
[5]
  pest or weed control at 1000 g/ha: 80%
[6]
  pest or weed control at 1000 g/ha: 90%
[7]
  pest or weed control at 1000 g/ha: 90%
[8]
  pest or weed control at 1000 g/ha: 80%
[9]
  pest or weed control at 1000 g/ha: 70%
[10]
  pest or weed control at 1000 g/ha: 70%

## CC#CCn1c(=O)ccc2cc(C(=O)C3C(=O)CCCC3=O)c(C(F)(F)F)nc21 [Compound 2.19, 2-(8-(But-2-ynyl)-7-oxo-7,8-dihydro-2-trifluoromethyl-[1,8]-naphthyridine-3-carbony)-cyclohexane-1,3-dione]
[1]
  PRE Application SETFA, damage to plant: 100
[2]
  PRE Application SOLNI, damage to plant: 100
[3]
  PRE Application ECHCG, damage to plant: 100
[4]
  PRE Application ALOMY, damage to plant: 100
[5]
  PRE Application AMARE, damage to plant: 100
[6]
  POST Application SETFA, damage to plant: 100
[7]
  POST Application SOLNI, damage to plant: 100
[8]
  POST Application ECHCG, damage to plant: 90
[9]
  POST Application ALOMY, damage to plant: 100
[10]
  POST Application AMARE, damage to plant: 70

## CCN(C)c1nc2nc(C(F)(F)F)c(C(=O)C3C(=O)CCCC3=O)cc2cc1F [Compound 1.81, 2-[6-fluoro-7-(N-methylethylamino)-2-trifluoromethyl-[1,8]-naphthyridine-3-carbony]-cyclohexane-1,3-dione]
[1]
  PRE Application SETFA, damage to plant: 100
[2]
  PRE Application SOLNI, damage to plant: 100
[3]
  PRE Application ECHCG, damage to plant: 100
[4]
  PRE Application ALOMY, damage to plant: 70
[5]
  PRE Application AMARE, damage to plant: 100
[6]
  POST Application SETFA, damage to plant: 80
[7]
  POST Application SOLNI, damage to plant: 80
[8]
  POST Application ECHCG, damage to plant: 90
[9]
  POST Application ALOMY, damage to plant: 70
[10]
  POST Application AMARE, damage to plant: 90

## COCc1nc2nc(C(F)(F)F)ccc2cc1C(=O)C1C(=O)CCCC1=O [Compound 1.100, 2-[2-(methoxymethyl)-7-trifluoromethyl-[1,8]-naphthyridine-3-carbony]-cyclohexane-1,3-dione]
[1]
  PRE Application SETFA, damage to plant: 100
[2]
  PRE Application SOLNI, damage to plant: 100
[3]
  PRE Application ECHCG, damage to plant: 100
[4]
  PRE Application ALOMY, damage to plant: 20
[5]
  PRE Application AMARE, damage to plant: 100
[6]
  POST Application SETFA, damage to plant: 80
[7]
  POST Application SOLNI, damage to plant: 80
[8]
  POST Application ECHCG, damage to plant: 80
[9]
  POST Application ALOMY, damage to plant: 40
[10]
  POST Application AMARE, damage to plant: 90

## COCCn1c(=O)ccc2cc(C(=O)C3C(=O)CCCC3=O)c(C(F)(F)F)nc21 [Compound 2.22, 2-{8-(2-Methoxyethyl)-7-oxo-7,8-dihydro-2-trifluoromethyl-[1,8]-naphthyridine-3-carbony}-cyclohexane-1,3-dione]
[1]
  PRE Application SETFA, damage to plant: 100
[2]
  PRE Application SOLNI, damage to plant: 100
[3]
  PRE Application ECHCG, damage to plant: 100
[4]
  PRE Application ALOMY, damage to plant: 100
[5]
  PRE Application AMARE, damage to plant: 100
[6]
  POST Application SETFA, damage to plant: 80
[7]
  POST Application SOLNI, damage to plant: 90
[8]
  POST Application ECHCG, damage to plant: 80
[9]
  POST Application ALOMY, damage to plant: 80
[10]
  POST Application AMARE, damage to plant: 80

## O=C(Cn1c(=O)ccc2cc(C(=O)C3C(=O)CCCC3=O)c(C(F)(F)F)nc21)c1ccccc1 [Compound 2.6, 2-{8-(2-phenyl-2-oxo-ethyl)-7-oxo-7,8-dihydro-2-trifluoromethyl-[1,8]-naphthyridine-3-carbony}-cyclohexane-1,3-dione]
[1]
  PRE Application SETFA, damage to plant: 10
[2]
  PRE Application SOLNI, damage to plant: 90
[3]
  PRE Application ECHCG, damage to plant: 40
[4]
  PRE Application ALOMY, damage to plant: 20
[5]
  PRE Application AMARE, damage to plant: 60
[6]
  POST Application SETFA, damage to plant: 70
[7]
  POST Application SOLNI, damage to plant: 90
[8]
  POST Application ECHCG, damage to plant: 70
[9]
  POST Application ALOMY, damage to plant: 40
[10]
  POST Application AMARE, damage to plant: 90

## CCN(CC)c1nc2nc(C(F)(F)F)c(C(=O)C3C(=O)CCCC3=O)cc2cc1F [Compound 1.73, 2-[7-(diethylamino)-6-fluoro-2-trifluoromethyl-[1,8]-naphthyridine-3-carbony]-cyclohexane-1,3-dione]
[1]
  pest or weed control at 1000 g/ha: 100%
[2]
  pest or weed control at 1000 g/ha: 100%
[3]
  pest or weed control at 1000 g/ha: 100%
[4]
  pest or weed control at 1000 g/ha: 60%
[5]
  pest or weed control at 1000 g/ha: 70%
[6]
  pest or weed control at 1000 g/ha: 80%
[7]
  pest or weed control at 1000 g/ha: 70%
[8]
  pest or weed control at 1000 g/ha: 80%
[9]
  pest or weed control at 1000 g/ha: 60%
[10]
  pest or weed control at 1000 g/ha: 70%

## COCCNc1nc2nc(C(F)(F)F)c(C(=O)C3C(=O)CCCC3=O)cc2cc1F [Compound 1.83, 2-[6-fluoro-7-(2-methoxyethylamino)-2-trifluoromethyl-[1,8]-naphthyridine-3-carbony]-cyclohexane-1,3-dione]
[1]
  PRE Application SETFA, damage to plant: 100
[2]
  PRE Application SOLNI, damage to plant: 100
[3]
  PRE Application ECHCG, damage to plant: 100
[4]
  PRE Application ALOMY, damage to plant: 60
[5]
  PRE Application AMARE, damage to plant: 100
[6]
  POST Application SETFA, damage to plant: 80
[7]
  POST Application SOLNI, damage to plant: 80
[8]
  POST Application ECHCG, damage to plant: 80
[9]
  POST Application ALOMY, damage to plant: 80
[10]
  POST Application AMARE, damage to plant: 80

## COCc1nc2ncc(F)cc2cc1C(=O)C1C(=O)CCCC1=O [Compound 1.74, 2-[6-fluoro-2-methoxymethyl-[1,8]-naphthyridine-3-carbony]-cyclohexane-1,3-dione]
[1]
  PRE Application SETFA, damage to plant: 100
[2]
  PRE Application SOLNI, damage to plant: 100
[3]
  PRE Application ECHCG, damage to plant: 100
[4]
  PRE Application ALOMY, damage to plant: 70
[5]
  PRE Application AMARE, damage to plant: 100
[6]
  POST Application SETFA, damage to plant: 80
[7]
  POST Application SOLNI, damage to plant: 80
[8]
  POST Application ECHCG, damage to plant: 80
[9]
  POST Application ALOMY, damage to plant: 40
[10]
  POST Application AMARE, damage to plant: 90
